# Reference: US20210379085A1, “HALOGENATED SALICYLANILIDES FOR TREATING THE SYMPTOMS OF DERMATITIS” (Union Therapeutics A/S, priority 2018, published 2021)
# Columns and labels:
# [1] = test system: lesional skin of patients with moderate atopic dermatitis; experiment: Skin thickness in lesional skin biopsies, Phase II atopic dermatitis study (Example 3); assay type: in vivo, human; settings: Day 22, compared to baseline and compared to vehicle; topical niclosamide 2% once daily 3 weeks
# Protocol: (§1) Patients received topical applications of a niclosamide 2% composition and vehicle once daily for 3 weeks, followed by a 1-week follow up period. Topical niclosamide 2% and vehicle was applied on two separate target lesions of atopic dermatitis (lesions of at least 3×3-cm that are at least 2 cm apart, excluding the face, scalp, genitals, hands, and feet). The application areas (5×5-cm) were randomized (1:1) to once daily application of niclosamide 2% or vehicle at 5 mg/cm^2 without occlusion 6 days per week. Patients came to the study site for all study product application for a total of 3 weeks.
# Three skin biopsies were collected in all patients (one from lesional skin at baseline, pre-dosing at Day 1, and two from lesional skin at Day 22 (one where topical niclosamide 2% had been applied and one where the vehicle had been applied). The lesional skin biopsies were analysed for skin thickness and inflammation biomarkers.
# [2] = test system: skin barrier and inflammation biomarkers in lesional skin biopsies; experiment: qRT-PCR (TLDA) biomarker gene expression in lesional skin biopsies (Example 3); assay type: in vivo, human; settings: fold change, topical niclosamide 2% once daily 3 weeks, AD lesional skin
# Protocol: as §1
# (§2) Skin barrier and inflammation biomarker levels were determined from lesional skin biopsies from application areas.
# (§3) The skin biopsy samples were analysed by immunohistochemistry (IHC), and by gene expression studies by RT-PCR using TaqMan Low Density Array (TLDA), and by microarray using Affymetrix U133A Plus 2. The immunohistochemistry (IHC) was used to analyse cell biomarkers. The methodologies as disclosed by Guttman-Yassky et al, “Major differences in inflammatory dendritic cells and their products distinguish atopic dermatitis from psoriasis”, The Journal of Allergy and Clinical Immunology, vol. 119, issue 5, pages 1210-1217, 2007, were followed except for that U133A Plus 2-set Gene Chip probe arrays was used instead of U95A-set Gene Chip probe arrays.
# Expression values (threshold cycle [Ct]) were normalized to Rplp0 by negatively transforming the Ct values to −dCt (IL17A was normalized to hARP, as analysed by qPCR). The undetected −dCt values were estimated for each gene as the 20% of the minimum across all samples. qRT-PCR expression data were modelled using a mixed effect model with Visit and Treatment Area as a fixed effect and a random intercept for each patient. This formulation intrinsically models the within patient correlation structure as in the case of a paired t-test. This approach introduces less bias than restricting the analysis for those patients who completed the study. Contrasts were used to estimate the fold changes with treatment within each treatment group and conduct hypothesis testing.
# [3] = Systemic exposure to niclosamide (serum) after topical application in healthy volunteers; assay type: in vivo; settings: human, after topical niclosamide formulations twice daily 7 days and final dose Day 8
# Protocol: The skin biopsies were taken using sterile single use disposable biopsy punches (BP40F, Kai Europe GmbH, Solingen, Germany). For the 6 non-treated healthy volunteers biopsies were taken on Day 1. 10 mL of blood was collected at day 1 for the method validation group to determine niclosamide concentration in the blood.
# [4] = test system: immune cell infiltrates (CD3, langerin, CD11c, FceR1) in lesional skin; experiment: Immunohistochemistry (IHC) of cell biomarkers in lesional skin biopsies (Example 3); assay type: in vivo, human; settings: topical 2% niclosamide
# Protocol: as §1, §2, §3
# [5] = Day 22, vs vehicle-treated lesion
# [6] = Day 22 vs baseline, listed as niclosamide
# [7] = Day 22 compared to baseline (pre-dosing at Day 1)
structure (smiles),measurement,setting,value
"O=C(Nc1ccc([N+](=O)[O-])cc1Cl)c1cc(Cl)ccc1O [Niclosamide, niclosamide]",skin thickness,[1],No differences
same,"CAMP expression, Niclosamide vs. Vehicle (qRT-PCR)",[2]; [5],−1.33
same,"CCL5 expression, Niclosamide vs. Vehicle (qRT-PCR)",[2]; [5],−1.03
same,"CCL17 expression, Niclosamide vs. Vehicle (qRT-PCR)",[2]; [5],−1.37
same,"CCL18 expression, Niclosamide vs. Vehicle (qRT-PCR)",[2]; [5],−2.02
same,"CCL20 expression, Niclosamide vs. Vehicle (qRT-PCR)",[2]; [5],−2.25
same,"CCL22 expression, Niclosamide vs. Vehicle (qRT-PCR)",[2]; [5],−1.49
same,"CCL26 expression, Niclosamide vs. Vehicle (qRT-PCR)",[2]; [5],−1.49
same,"CXCL1 expression, Niclosamide vs. Vehicle (qRT-PCR)",[2]; [5],−1.63
same,"CXCL2 expression, Niclosamide vs. Vehicle (qRT-PCR)",[2]; [5],−1.21
same,"CXCL9 expression, Niclosamide vs. Vehicle (qRT-PCR)",[2]; [5],1.16
same,"CXCL10 expression, Niclosamide vs. Vehicle (qRT-PCR)",[2]; [5],−1.10
same,"DEFB4A/DEFB4B expression, Niclosamide vs. Vehicle (qRT-PCR)",[2]; [5],−2.06
same,"FLG expression, Niclosamide vs. Vehicle (qRT-PCR)",[2]; [5],1.30
same,"FOXP3 expression, Niclosamide vs. Vehicle (qRT-PCR)",[2]; [5],−1.14
same,"IFNg expression, Niclosamide vs. Vehicle (qRT-PCR)",[2]; [5],1.19
same,"IL1B expression, Niclosamide vs. Vehicle (qRT-PCR)",[2]; [5],−1.01
same,"IL2 expression, Niclosamide vs. Vehicle (qRT-PCR)",[2]; [5],−1.36
same,"IL5 expression, Niclosamide vs. Vehicle (qRT-PCR)",[2]; [5],−1.47
same,"IL6 expression, Niclosamide vs. Vehicle (qRT-PCR)",[2]; [5],−1.24
same,"IL8 expression, Niclosamide vs. Vehicle (qRT-PCR)",[2]; [5],−1.46
same,"IL9 expression, Niclosamide vs. Vehicle (qRT-PCR)",[2]; [5],−1.17
same,"IL10 expression, Niclosamide vs. Vehicle (qRT-PCR)",[2]; [5],−1.51
same,"IL12A expression, Niclosamide vs. Vehicle (qRT-PCR)",[2]; [5],1.09
same,"IL12B expression, Niclosamide vs. Vehicle (qRT-PCR)",[2]; [5],−1.42
same,"IL13 expression, Niclosamide vs. Vehicle (qRT-PCR)",[2]; [5],−1.59
same,"IL15RA expression, Niclosamide vs. Vehicle (qRT-PCR)",[2]; [5],−1.12
same,"IL15 expression, Niclosamide vs. Vehicle (qRT-PCR)",[2]; [5],−1.14
same,"IL17A expression, Niclosamide vs. Vehicle (qRT-PCR)",[2]; [5],−1.40
same,"IL17C expression, Niclosamide vs. Vehicle (qRT-PCR)",[2]; [5],−2.35
same,"IL17F expression, Niclosamide vs. Vehicle (qRT-PCR)",[2]; [5],1.37
same,"IL19 expression, Niclosamide vs. Vehicle (qRT-PCR)",[2]; [5],1.16
same,"IL22 expression, Niclosamide vs. Vehicle (qRT-PCR)",[2]; [5],−1.97
same,"IL23A expression, Niclosamide vs. Vehicle (qRT-PCR)",[2]; [5],−1.37
same,"IL31 expression, Niclosamide vs. Vehicle (qRT-PCR)",[2]; [5],−1.46
same,"IL33 expression, Niclosamide vs. Vehicle (qRT-PCR)",[2]; [5],1.11
same,"KRT16 expression, Niclosamide vs. Vehicle (qRT-PCR)",[2]; [5],−1.60
same,"LOR expression, Niclosamide vs. Vehicle (qRT-PCR)",[2]; [5],1.27
same,"MMP12 expression, Niclosamide vs. Vehicle (qRT-PCR)",[2]; [5],−1.90
same,"PI3 expression, Niclosamide vs. Vehicle (qRT-PCR)",[2]; [5],−1.93
same,"PPL expression, Niclosamide vs. Vehicle (qRT-PCR)",[2]; [5],1.04
same,"S100A7 expression, Niclosamide vs. Vehicle (qRT-PCR)",[2]; [5],−2.20
same,"S100A8 expression, Niclosamide vs. Vehicle (qRT-PCR)",[2]; [5],−2.02
same,"S100A9 expression, Niclosamide vs. Vehicle (qRT-PCR)",[2]; [5],−1.97
same,"S100A12 expression, Niclosamide vs. Vehicle (qRT-PCR)",[2]; [5],−2.11
same,"TSLPR expression, Niclosamide vs. Vehicle (qRT-PCR)",[2]; [5],−1.36
same,"CAMP expression, Niclosamide vs. Predose (qRT-PCR)",[2]; Day 22 vs baseline,−3.02
same,"CCL5 expression, Niclosamide vs. Predose (qRT-PCR)",[2]; Day 22 vs baseline,−1.22
same,"CCL17 expression, Niclosamide vs. Predose (qRT-PCR)",[2]; Day 22 vs baseline,−2.02
same,"CCL18 expression, Niclosamide vs. Predose (qRT-PCR)",[2]; Day 22 vs baseline,−2.45
same,"CCL20 expression, Niclosamide vs. Predose (qRT-PCR)",[2]; Day 22 vs baseline,−1.96
same,"CCL22 expression, Niclosamide vs. Predose (qRT-PCR)",[2]; Day 22 vs baseline,−1.95
same,"CCL26 expression, Niclosamide vs. Predose (qRT-PCR)",[2]; Day 22 vs baseline,−1.03
same,"CXCL1 expression, Niclosamide vs. Predose (qRT-PCR)",[2]; Day 22 vs baseline,−2.80
same,"CXCL2 expression, Niclosamide vs. Predose (qRT-PCR)",[2]; Day 22 vs baseline,−1.89
same,"CXCL9 expression, Niclosamide vs. Predose (qRT-PCR)",[2]; Day 22 vs baseline,−1.51
same,"CXCL10 expression, Niclosamide vs. Predose (qRT-PCR)",[2]; Day 22 vs baseline,−1.64
same,"DEFB4A/DEFB4B expression, Niclosamide vs. Predose (qRT-PCR)",[2]; Day 22 vs baseline,−4.09
same,"FLG expression, Niclosamide vs. Predose (qRT-PCR)",[2]; Day 22 vs baseline,1.50
same,"FOXP3 expression, Niclosamide vs. Predose (qRT-PCR)",[2]; Day 22 vs baseline,−1.39
same,"IFNg expression, Niclosamide vs. Predose (qRT-PCR)",[2]; Day 22 vs baseline,−1.11
same,"IL1B expression, Niclosamide vs. Predose (qRT-PCR)",[2]; Day 22 vs baseline,−1.64
same,"IL2 expression, Niclosamide vs. Predose (qRT-PCR)",[2]; Day 22 vs baseline,−1.20
same,"IL5 expression, Niclosamide vs. Predose (qRT-PCR)",[2]; Day 22 vs baseline,−2.38
same,"IL6 expression, Niclosamide vs. Predose (qRT-PCR)",[2]; Day 22 vs baseline,−2.34
same,"IL8 expression, Niclosamide vs. Predose (qRT-PCR)",[2]; Day 22 vs baseline,−3.78
same,"IL9 expression, Niclosamide vs. Predose (qRT-PCR)",[2]; Day 22 vs baseline,−1.91
same,"IL10 expression, Niclosamide vs. Predose (qRT-PCR)",[2]; Day 22 vs baseline,−1.85
same,"IL12A expression, Niclosamide vs. Predose (qRT-PCR)",[2]; Day 22 vs baseline,−1.01
same,"IL12B expression, Niclosamide vs. Predose (qRT-PCR)",[2]; Day 22 vs baseline,−2.01
same,"IL13 expression, Niclosamide vs. Predose (qRT-PCR)",[2]; Day 22 vs baseline,−2.06
same,"IL15RA expression, Niclosamide vs. Predose (qRT-PCR)",[2]; Day 22 vs baseline,−1.46
same,"IL15 expression, Niclosamide vs. Predose (qRT-PCR)",[2]; Day 22 vs baseline,−1.47
same,"IL17A expression, Niclosamide vs. Predose (qRT-PCR)",[2]; Day 22 vs baseline,−2.23
same,"IL17C expression, Niclosamide vs. Predose (qRT-PCR)",[2]; Day 22 vs baseline,−3.24
same,"IL17F expression, Niclosamide vs. Predose (qRT-PCR)",[2]; Day 22 vs baseline,1.02
same,"IL19 expression, Niclosamide vs. Predose (qRT-PCR)",[2]; Day 22 vs baseline,−3.26
same,"IL22 expression, Niclosamide vs. Predose (qRT-PCR)",[2]; Day 22 vs baseline,−2.86
same,"IL23A expression, Niclosamide vs. Predose (qRT-PCR)",[2]; Day 22 vs baseline,−2.13
same,"IL31 expression, Niclosamide vs. Predose (qRT-PCR)",[2]; Day 22 vs baseline,−1.85
same,"IL33 expression, Niclosamide vs. Predose (qRT-PCR)",[2]; Day 22 vs baseline,−1.08
same,"KRT16 expression, Niclosamide vs. Predose (qRT-PCR)",[2]; Day 22 vs baseline,−3.88
same,"LOR expression, Niclosamide vs. Predose (qRT-PCR)",[2]; Day 22 vs baseline,1.67
same,"MMP12 expression, Niclosamide vs. Predose (qRT-PCR)",[2]; Day 22 vs baseline,−3.27
same,"PI3 expression, Niclosamide vs. Predose (qRT-PCR)",[2]; Day 22 vs baseline,−4.52
same,"PPL expression, Niclosamide vs. Predose (qRT-PCR)",[2]; Day 22 vs baseline,−1.07
same,"S100A7 expression, Niclosamide vs. Predose (qRT-PCR)",[2]; Day 22 vs baseline,−3.04
same,"S100A8 expression, Niclosamide vs. Predose (qRT-PCR)",[2]; Day 22 vs baseline,−3.85
same,"S100A9 expression, Niclosamide vs. Predose (qRT-PCR)",[2]; Day 22 vs baseline,−3.47
same,"S100A12 expression, Niclosamide vs. Predose (qRT-PCR)",[2]; Day 22 vs baseline,−4.29
same,"TSLPR expression, Niclosamide vs. Predose (qRT-PCR)",[2]; Day 22 vs baseline,−1.82
same,"FLG expression, Niclosamide vs. Predose (qRT-PCR)",[2]; [6],increased significantly
same,"LOR expression, Niclosamide vs. Predose (qRT-PCR)",[2]; [6],increased significantly
same,concentration at 8 day,[3],0.24 ng/mL
same,"inflammatory cells (dendritic cells: CD11c, FceR1 in epidermis, and Langerhans cells: langerin/CD207)",[4]; [7],Significant reductions
same,total amount of T cells (CD3) in dermis and epidermis,[4]; [7],No significant change
same,CD11c Dermis expression level,"[4]; Day 22 compared to baseline, clinically correlated to TSS",significantly changed
